ChEMBL document CHEMBL1201862, “PubChem BioAssay data set” (2004)
Calls of active or inactive are those of the source.

What was measured:
[1] = test system: HEK293; assay: cells; type: functional, cell-based; conditions: Homo sapiens
[2] = Shn3 3'UTR reporter signal decrease – cell-based, Clone20 osteoblasts, firefly luciferase, cherry-pick, set 2, Schnurri-3 inhibitor project, dose response (AID 720490); type: functional;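 note: actives lower the luminescence signal as inhibitors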
[3] = test system: HEK293; assay: inhibition of NOD1-driven NF-kB reporter – cell-based, luminescence, uHTS, primary screen (AID 1578); type: functional; conditions: Homo sapiens
[4] = reduction of Shn3 3'UTR-driven luciferase in osteoblasts – cell-based, Clone20 osteoblasts, firefly luciferase, cherry-picked, dose response (AID 624132); type: functional;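 note: firefly luciferase luminescence from reporter carrying the Shn3 3'UTR in osteoblasts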
[5] = test system: HEK293; assay: cells; type: functional, cell-based; conditions: Homo sapiens; remark: listed apart in the source
[6] = decrease of insulin promoter-GFP reporter – imaging, high-content screening, mouse beta cells (AID 1628); type: functional; conditions: MIN6
[7] = test system: HEK293; assay: NOD2 signaling inhibitors in MDP-stimulated cells, cell-based, uHTS, luminescence (AID 2001); type: functional; conditions: Homo sapiens
[8] = MIN6 cell viability loss – mouse insulinoma, cytotoxicity control, dose response (AID 2122); type: functional;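 note: confirmatory high-throughput counterscreen run to flag cytotoxic compounds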
[9] = loss of viability in HepG2 cells – cell-based, CellTiter-Glo, cherry-picked, cytotoxicity control for Shn3 inhibitor project, dose response (AID 624134); type: functional
[10] = test system: INS1; assay: INS-1E survival protection against cytokine death – cell-based, luminescence, retest, dose response (AID 449756); type: functional; conditions: Rattus norvegicus;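 note: cell death triggered by IL-1 beta plus TNF-alpha plus IFN-gamma mixture; protective hits raise ATP signal compared with cytokine alone wells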
[11] = non-specific 3'UTR reporter inhibition in Clone20-Shn3RL – cell-based, Renilla luciferase, cherry-picked, counter-screen for Shn3 inhibitor project, dose response (AID 624133); type: functional
[12] = viability of HCT116 lacking mutant beta-catenin – cell-based, human colon tumor, dose response (AID 1045); type: functional;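 note: HCT116 colon tumor cells with beta catenin knocked out; cells exposed to compound for 60 hours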
[13] = microbe, parasite or virus in culture; type: functional; conditions: Mycobacterium tuberculosis
[14] = target: Disintegrin and metalloproteinase domain-containing protein 17 (Homo sapiens, UniProt P78536); assay: inhibition of ADAM17 substrate cleavage – biochemical, quenched FRET substrate, counter-screen for ADAM10 exosite inhibitor project, dose response (AID 743253)
Disintegrin and metalloproteinase domain-containing protein 17, sequence (P78536 whole entry, the tested form may be a part): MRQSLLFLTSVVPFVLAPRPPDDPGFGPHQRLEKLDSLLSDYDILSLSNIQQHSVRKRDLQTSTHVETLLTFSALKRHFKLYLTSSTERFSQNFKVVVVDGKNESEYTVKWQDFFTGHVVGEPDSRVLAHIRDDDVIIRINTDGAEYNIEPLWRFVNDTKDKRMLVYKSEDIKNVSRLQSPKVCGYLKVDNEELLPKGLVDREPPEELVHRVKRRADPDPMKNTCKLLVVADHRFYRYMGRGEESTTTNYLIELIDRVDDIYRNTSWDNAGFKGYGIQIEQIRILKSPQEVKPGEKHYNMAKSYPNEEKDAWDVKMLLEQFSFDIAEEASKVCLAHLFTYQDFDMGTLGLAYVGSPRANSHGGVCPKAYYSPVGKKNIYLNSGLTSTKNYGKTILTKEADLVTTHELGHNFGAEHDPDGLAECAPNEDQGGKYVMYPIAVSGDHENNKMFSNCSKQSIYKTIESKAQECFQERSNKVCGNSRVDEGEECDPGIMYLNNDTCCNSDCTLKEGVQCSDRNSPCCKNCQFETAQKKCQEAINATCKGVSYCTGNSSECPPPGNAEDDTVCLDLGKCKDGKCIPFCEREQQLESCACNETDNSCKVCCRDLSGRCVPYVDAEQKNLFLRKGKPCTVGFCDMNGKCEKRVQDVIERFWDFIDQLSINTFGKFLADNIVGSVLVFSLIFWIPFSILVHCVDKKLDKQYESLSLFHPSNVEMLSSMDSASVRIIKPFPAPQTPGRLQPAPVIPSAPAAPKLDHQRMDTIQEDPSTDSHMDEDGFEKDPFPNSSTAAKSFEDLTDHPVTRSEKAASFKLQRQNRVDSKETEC

[15] = test system: Streptococcus sp. 'group A'; assay: Streptococcus pyogenes SK(-)GAS viability under kanamycin – luminescence, BacTiterGlo, confirmation, counter-screen for streptokinase expression inhibitor project, dose response (AID 1900); type: functional, organism-based
[16] = test system: Streptococcus; assay: GAS UMAA2166 growth inhibition – luminescence, BacTiterGlo, counter-screen for streptokinase expression inhibitor project, dose response (AID 1915); type: functional, organism-based;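 note: potency for reduction of bacterial viability or growth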
[17] = viability of PTEN-deleted HCT116 cells – cell-based, HCT116 PTEN knockout, dose response (AID 1047); type: functional;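 note: HCT116 colon tumor cells with PTEN knocked out; cells exposed to compound for 60 hours before readout; potency for loss of cell viability measured by luminescence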
[18] = target: T1, Streptokinase A (Streptococcus pyogenes serotype M1, UniProt P10520); assay: viability-normalized secreted streptokinase activity reduction – plasminogen activation absorbance, OD405, dose response (AID 1914); type: functional, Streptococcus pyogenes M1 GAS;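 note: secreted streptokinase activity via plasminogen activation per viability signal from cell pellet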
T1 sequence (P10520 whole entry): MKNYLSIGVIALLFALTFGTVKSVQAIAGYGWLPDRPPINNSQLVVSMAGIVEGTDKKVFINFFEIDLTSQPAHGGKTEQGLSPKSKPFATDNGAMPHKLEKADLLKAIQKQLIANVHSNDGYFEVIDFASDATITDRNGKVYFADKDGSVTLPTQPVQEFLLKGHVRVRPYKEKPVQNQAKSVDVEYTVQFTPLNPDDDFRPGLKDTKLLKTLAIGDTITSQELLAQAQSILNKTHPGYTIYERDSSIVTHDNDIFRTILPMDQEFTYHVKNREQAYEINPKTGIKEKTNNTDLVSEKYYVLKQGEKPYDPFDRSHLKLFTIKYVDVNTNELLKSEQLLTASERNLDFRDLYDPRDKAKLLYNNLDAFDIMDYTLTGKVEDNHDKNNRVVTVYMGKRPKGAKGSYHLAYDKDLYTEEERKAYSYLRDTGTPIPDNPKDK

[19] = ATP-based viability loss in HEK293T cells – cell-based, CellTiter-Glo luminescence, dry powder, set 2, cytotoxicity control, dose response (AID 720595); type: functional; conditions: HEK293
[20] = Luminescence-based cell-based high throughput dose response assay to identify activators of the DAF-12 from the parasite S. stercoralis (ssDAF-12).; type: functional
[21] = target: T2, Oxysterols receptor LXR-beta (Homo sapiens, UniProt P55055); assay: LXR agonists, Gal4 luciferase reporter, dose response, counter-screen for ssDAF-12 agonist project, cell-based, luminescence, HEK293, S. stercoralis campaign (AID 720737); type: functional; conditions: read-out: IC50 (the source's name)
T2 sequence (P55055 whole entry): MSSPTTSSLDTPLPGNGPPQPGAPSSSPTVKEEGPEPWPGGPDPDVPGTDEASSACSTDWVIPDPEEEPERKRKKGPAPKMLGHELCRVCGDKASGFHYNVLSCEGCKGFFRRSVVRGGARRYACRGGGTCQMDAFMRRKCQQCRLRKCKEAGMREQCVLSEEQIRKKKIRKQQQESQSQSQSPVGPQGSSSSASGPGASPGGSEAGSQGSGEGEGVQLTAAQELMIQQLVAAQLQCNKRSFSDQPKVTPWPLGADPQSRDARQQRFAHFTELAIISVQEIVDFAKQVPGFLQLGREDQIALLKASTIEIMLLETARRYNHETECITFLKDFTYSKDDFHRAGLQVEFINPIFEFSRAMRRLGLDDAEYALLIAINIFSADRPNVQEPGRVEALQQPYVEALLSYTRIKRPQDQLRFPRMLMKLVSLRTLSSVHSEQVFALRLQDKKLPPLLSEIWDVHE

[22] = target: Glucose-6-phosphate 1-dehydrogenase (Homo sapiens, UniProt P11413); assay: inhibition of Homo sapiens G6PD, dose series – biochemical, fluorescence, selectivity assay for P. falciparum G6PD inhibitor project, dose response (AID 504792); type: functional
Glucose-6-phosphate 1-dehydrogenase, sequence (P11413 whole entry): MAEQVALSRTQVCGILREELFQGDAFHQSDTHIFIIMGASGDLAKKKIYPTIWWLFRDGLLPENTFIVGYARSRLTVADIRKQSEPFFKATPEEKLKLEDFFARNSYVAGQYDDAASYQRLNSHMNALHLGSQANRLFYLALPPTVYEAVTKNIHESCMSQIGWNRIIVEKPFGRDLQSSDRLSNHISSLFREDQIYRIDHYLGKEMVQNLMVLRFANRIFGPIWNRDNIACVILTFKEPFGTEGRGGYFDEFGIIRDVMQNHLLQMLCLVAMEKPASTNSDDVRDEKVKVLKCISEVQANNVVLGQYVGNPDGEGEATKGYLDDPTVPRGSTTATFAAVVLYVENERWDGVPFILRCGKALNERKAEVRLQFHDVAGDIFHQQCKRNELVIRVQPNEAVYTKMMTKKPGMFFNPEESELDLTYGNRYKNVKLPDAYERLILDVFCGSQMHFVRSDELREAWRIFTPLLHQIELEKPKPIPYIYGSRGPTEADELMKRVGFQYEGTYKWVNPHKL

[23] = target: T2, Oxysterols receptor LXR-beta; type: functional, cell-based
[24] = cells
[25] = target: NAD-dependent protein deacylase sirtuin-5, mitochondrial (Homo sapiens, UniProt Q9NXA8); assay: sirtuin-5 deacylation blockers, concentration series – biochemical, fluorescence imaging, cherry-pick, set 5, dose response (AID 720591);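 note: desuccinylation of succinyl peptide AMC substrate read as fluorescence after trypsin release; potency of inhibitors that lower fluorescence and may act on trypsin instead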
NAD-dependent protein deacylase sirtuin-5, mitochondrial, sequence (Q9NXA8 whole entry): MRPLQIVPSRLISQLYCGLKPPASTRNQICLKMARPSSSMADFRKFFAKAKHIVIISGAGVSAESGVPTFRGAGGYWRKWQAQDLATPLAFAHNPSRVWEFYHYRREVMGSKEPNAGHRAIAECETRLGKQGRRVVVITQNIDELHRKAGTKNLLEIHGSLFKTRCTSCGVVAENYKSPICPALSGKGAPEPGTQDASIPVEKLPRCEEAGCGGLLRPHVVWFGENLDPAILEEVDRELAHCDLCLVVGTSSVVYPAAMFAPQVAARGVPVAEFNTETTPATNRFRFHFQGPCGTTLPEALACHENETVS

[26] = OVCAR-3 cell viability loss – plate reader, dry powder samples, PAX8 inhibitor project, dose response (AID 743044); type: functional, cell-based
[27] = IGROV1 cell killing – plate reader, dry powder samples, PAX8 inhibitor project, dose response (AID 743043); type: functional, cell-based; conditions: IGROV-1
[28] = target: Paired box protein Pax-8 (Homo sapiens, UniProt Q06710); assay: PAX8 transcriptional activity inhibition in RMG-I – RMG-I cells, luciferase, cherry-pick, dose response (AID 687027); type: functional, cell-based;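 note: luciferase reporter driven by Pax8 target thyroperoxidase promoter measured by SteadyGlo luminescence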
Paired box protein Pax-8, sequence (Q06710 whole entry): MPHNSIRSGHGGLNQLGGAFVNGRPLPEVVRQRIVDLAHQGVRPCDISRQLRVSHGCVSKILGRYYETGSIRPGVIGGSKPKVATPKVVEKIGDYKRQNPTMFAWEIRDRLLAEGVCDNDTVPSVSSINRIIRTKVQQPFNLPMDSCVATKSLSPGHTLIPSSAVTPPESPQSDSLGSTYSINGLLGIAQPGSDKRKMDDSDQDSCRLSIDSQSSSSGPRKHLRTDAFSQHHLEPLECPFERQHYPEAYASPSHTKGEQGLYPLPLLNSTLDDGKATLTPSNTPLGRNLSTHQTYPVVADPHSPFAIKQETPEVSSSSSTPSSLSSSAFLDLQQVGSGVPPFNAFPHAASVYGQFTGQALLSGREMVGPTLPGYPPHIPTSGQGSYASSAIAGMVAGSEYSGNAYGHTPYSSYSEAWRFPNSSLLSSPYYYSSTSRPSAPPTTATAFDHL

[29] = OVCAR8 cell viability loss – plate reader, dry powder samples, PAX8 project, dose response (AID 743197); type: functional, cell-based; conditions: OVCAR-8
[30] = A2780 cell killing – plate reader, dry powder samples, cytotoxicity control, dose response (AID 743046); type: functional, cell-based

O=C(c1cc(COc2ccc3ncccc3c2)on1)N1CCCCCC1
active: AC50 [2] 3.57 µM | EC50 [3] 1.85 µM | AC50 [4] 0.703 µM | IC50 [5] 5.76 µM | IC50 [6] 1.86 µM | IC50 [8] 1.13 µM | AC50 [9] 43.6 µM | AC50 [10] 5.88 µM | AC50 [11] 23.4 µM
inactive: IC50 [1] > 20 µM | IC50 [7] 13.2 µM

O=[N+]([O-])c1ccc(-c2nc(-c3cccs3)c(-c3cccs3)[nH]2)cc1
active: EC50 [12] 19 µM | CC50 [13] 19.5 µM | EC50 [15] 11.6 µM | EC50 [16] 17.3 µM | EC50 [17] 17.1 µM | EC50 [18] 20.1 µM
inactive: IC50 [14] > 69.5 µM

CC1CCN(S(=O)(=O)c2ccc(C(=O)Nc3nnc(-c4ccco4)o3)cc2)CC1
inactive: AC50 [19] > 52 µM

COc1ccc(C(=O)/C=C2\Sc3ccccc3N2C)cc1
inactive: IC50 [20] > 67.6 µM | EC50 [21] > 67.6 µM | IC50 [22] > 80 µM

Cc1csc(NC(=O)c2oc3ccccc3c2C)n1
inactive: EC50 [23] > 67.6 µM | EC50 [24] > 67.6 µM

COc1ccc(NC(=O)c2cccnc2N2CCCC2)cc1
inactive: AC50 [25] > 30 µM

O=C1CN(S(=O)(=O)Cc2ccccc2)C[C@@H]2[C@@H](c3ccc(C#CCC4CCCC4)cc3)[C@@H](CO)N12
active: AC50 [26] 4.22 µM | AC50 [27] 18.8 µM | AC50 [28] 4.58 µM | AC50 [29] 28.1 µM | AC50 [30] 11.3 µM
